Data taken from patent US20070219212A1, “Pyranouidole Derivatives and the Use Thereof for the Treatment of Hepatitis C Virus Infection or Disease” (priority 2004, published 2007).
Like-named read-outs stand apart in the source and are kept apart here.

Columns and labels:
[1] = target: T1, NS5B from the BK strain (genotype 1b) (Hepatitis C virus genotype 1b, UniProt P26663); assay: Hepatitis C polymerase (NS5B, BK strain) inhibition, radioactive filter assay; type: biochemical; conditions: NS5B BK strain (genotype 1b)
T1 construct: NS5B from the BK strain (genotype 1b) is expressed in E coli as a protein in which the 21 C-terminal amino acids are replaced; made in house; host or cells: E. coli
How it was run: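 E. coli-expressed C-terminally truncated His-tagged NS5B preincubated 15 min with compound at room temperature, then run 2 h at 22-25 °C on a hairpin-primed heteropolymeric RNA template (~3 nM) with radioactive nucleotides. EDTA stop; ~760 nt 33P product captured on filters, washed with phosphate buffer pH 7.0, scintillation counted.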

[2] = target: BB7 RNA-dependent RNA polymerase hepatitis C virus protein (Con1 HCV sequence) (Hepatitis C virus genotype 1b, UniProt Q9WMX2); assay: Hepatitis C polymerase (BB7) inhibition; type: biochemical
How it was run: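 Con1 (BB7) replicon-derived NS5B polymerase preincubated with compound (15% DMSO) 15 min at room temperature, then RNA template (~3 nM pOF) and nucleotides added. Reaction run 2 h at 22-25° C., stopped with EDTA (85 mM final). ^33P-labelled product captured on filters, washed with 0.5 M sodium phosphate pH 7.0, scintillation counted.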

[3] = BB7 (Con1) NS5B, read-out: BB7 IC50

T1 sequence (P26663 2420-2989): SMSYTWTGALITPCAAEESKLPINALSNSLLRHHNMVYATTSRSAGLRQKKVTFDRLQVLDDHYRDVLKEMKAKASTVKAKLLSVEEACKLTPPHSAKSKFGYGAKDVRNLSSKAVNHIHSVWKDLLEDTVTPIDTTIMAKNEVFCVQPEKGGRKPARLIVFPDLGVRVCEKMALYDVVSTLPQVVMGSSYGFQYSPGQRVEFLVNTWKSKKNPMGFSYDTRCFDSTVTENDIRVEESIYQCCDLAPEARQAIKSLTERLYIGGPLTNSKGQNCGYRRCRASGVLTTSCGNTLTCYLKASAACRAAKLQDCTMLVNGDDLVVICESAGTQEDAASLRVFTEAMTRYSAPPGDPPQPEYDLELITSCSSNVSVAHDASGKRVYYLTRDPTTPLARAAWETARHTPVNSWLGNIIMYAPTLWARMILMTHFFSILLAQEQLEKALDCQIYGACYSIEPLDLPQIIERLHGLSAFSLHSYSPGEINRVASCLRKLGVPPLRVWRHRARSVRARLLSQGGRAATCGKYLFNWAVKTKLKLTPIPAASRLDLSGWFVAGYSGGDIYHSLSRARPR
Sequence of BB7 RNA-dependent RNA polymerase hepatitis C virus protein (Con1 HCV sequence) (Q9WMX2 2420-3010): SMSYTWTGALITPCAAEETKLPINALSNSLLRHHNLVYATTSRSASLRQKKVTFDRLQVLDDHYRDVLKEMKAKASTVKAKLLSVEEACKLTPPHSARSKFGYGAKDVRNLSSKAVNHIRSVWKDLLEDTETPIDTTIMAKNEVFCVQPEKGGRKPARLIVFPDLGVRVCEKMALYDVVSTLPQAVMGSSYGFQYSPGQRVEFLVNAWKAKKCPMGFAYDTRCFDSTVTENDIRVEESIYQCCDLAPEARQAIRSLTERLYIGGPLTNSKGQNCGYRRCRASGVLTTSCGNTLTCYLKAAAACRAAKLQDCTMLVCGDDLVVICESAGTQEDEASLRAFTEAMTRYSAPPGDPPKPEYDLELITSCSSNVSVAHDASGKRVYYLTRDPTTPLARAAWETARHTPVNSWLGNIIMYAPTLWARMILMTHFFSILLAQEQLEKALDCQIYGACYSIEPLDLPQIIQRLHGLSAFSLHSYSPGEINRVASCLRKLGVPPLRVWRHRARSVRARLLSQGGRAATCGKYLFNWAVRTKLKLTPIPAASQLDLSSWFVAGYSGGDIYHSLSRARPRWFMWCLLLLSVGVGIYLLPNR

Compound | IC50 [1] [nM] | IC50 [2] [nM] | IC50 ([2]; read-out: BB7 IC50, BB7 (Con1) NS5B) [nM] | IC50 [2, 3] [nM]
CCCC1(CC(=O)O)OCCc2c1[nH]c1c(C)c(OCc3ccnc(NS(C)(=O)=O)c3)cc(C#N)c21 (stereo not drawn) [Example 96] | < 500 | < 500 |  | 
CCCC1(CC(=O)O)OCCc2c1[nH]c1c(C)c(OC[C@@H]3CCC(=O)N3)cc(C#N)c21 (stereo partly drawn) [Example 97] | < 500 | < 500 |  | 
CCCC1(CC(=O)O)OCCc2c1[nH]c1c(C)c(OCC(C)=O)cc(C#N)c21 (stereo not drawn) [Example 98] | 500 to 5000 | < 500 |  | 
CCCC1(CC(=O)O)OCCc2c1[nH]c1c(C)c(OCC(C)=NOC)cc(C#N)c21 (stereo not drawn) [Example 100] | < 500 | < 500 |  | 
CCCC1(CC(=O)O)OCCc2c1[nH]c1c(C)c(OC[C@H]3CCC(=O)N3)cc(C#N)c21 (stereo partly drawn) [Example 101] | < 500 | < 500 |  | 
CCCC1(CC(=O)O)OCCc2c1[nH]c1c(C)c(OCC(C)O)cc(C#N)c21 (stereo not drawn) [Example 102] | < 500 | < 500 |  | 
CCCC1(CC(=O)O)OCCc2c1[nH]c1c(C)c(OCC(=O)NC)cc(C#N)c21 (stereo not drawn) [Example 103] | < 500 | < 500 |  | 
CCCC1(CC(=O)O)OCCc2c1[nH]c1c(C)c(OCC(C)=NOCC)cc(C#N)c21 (stereo not drawn) [Example 104] | < 500 | < 500 |  | 
CCCC1(CC(=O)O)OCCc2c1[nH]c1c(C)c(OCC(C)=NOCC)cc(C#N)c21 (stereo not drawn) [Example 105] | < 500 |  | < 500 | 
CCCC1(CC(=O)O)OCCc2c1[nH]c1c(C)c(OCC3CCSCC3)cc(C#N)c21 (stereo not drawn) [Example 106] | < 500 | < 500 |  | 
CCCC1(CC(=O)O)OCCc2c1[nH]c1c(C)c(OCC3CCS(=O)(=O)CC3)cc(C#N)c21 (stereo not drawn) [Example 107] | < 500 | < 500 |  | 
CCCC1(CC(=O)O)OCCc2c1[nH]c1c(C)c(OCC3CCOCC3)cc(C#N)c21 (stereo not drawn) [Example 108] | < 500 |  |  | < 500
CCCC1(CC(=O)O)OCCc2c1[nH]c1c(C)c(OCc3cc(C)nc(C)c3)cc(C#N)c21 (stereo not drawn) [Example 109] | < 500 |  |  | < 500
CCCC1(CC(=O)O)OCCc2c1[nH]c1c(C)c(OCc3nccn3C)cc(C#N)c21 (stereo not drawn) [Example 110] | < 500 | < 500 |  | 
CCCC1(CC(=O)O)OCCc2c1[nH]c1c(C)c(OCCOCC)cc(C#N)c21 (stereo not drawn) [Example 111] | < 500 | < 500 |  | 
CCCC1(CC(=O)O)OCCc2c1[nH]c1c(C)c(OCCOC(C)C)cc(C#N)c21 (stereo not drawn) [Example 112] | < 500 | < 500 |  | 
CCCC1(CC(=O)O)OCCc2c1[nH]c1c(C)c(OCOC)cc(C#N)c21 (stereo not drawn) [Example 113] | < 500 | < 500 |  | 
CCCC1(CC(=O)O)OCCc2c1[nH]c1c(C)c(OCCN(C)Cc3ccccc3)cc(C#N)c21 (stereo not drawn) [Example 114] | < 500 | < 500 |  | 
CCCC1(CC(=O)O)OCCc2c1[nH]c1c(C)c(OCCOCCOC)cc(C#N)c21 (stereo not drawn) [Example 115] | < 500 |  |  | < 500
CCCC1(CC(=O)O)OCCc2c1[nH]c1c(C)c(OCc3nnnn3C)cc(C#N)c21 (stereo not drawn) [Example 116] | < 500 | < 500 |  | 
CCCC1(CC(=O)O)OCCc2c1[nH]c1c(C)c(OCCOCc3ccccc3)cc(C#N)c21 (stereo not drawn) [Example 117] | < 500 | < 500 |  | 
CCC[C@]1(CC(=O)O)OCCc2c1[nH]c1c(C)c(OCCOCC)cc(C#N)c21 [Example 118] | < 500 | < 500 |  | 
CCCC1(CC(=O)O)OCCc2c1[nH]c1c(C)c(OCCCOC)cc(C#N)c21 (stereo not drawn) [Example 119] | < 500 | < 500 |  | 
CCCC1(CC(=O)O)OCCc2c1[nH]c1c(C)c(OCCOCC3CC3)cc(C#N)c21 (stereo not drawn) [Example 120] | < 500 |  |  | < 500

Compound | IC50 [1] [nM] | IC50 [2] [nM] | IC50 ([2]; read-out: BB7 IC50, BB7 (Con1) NS5B) [nM] | IC50 [2, 3] [nM]
CCCC1(CC(=O)O)OCCc2c1[nH]c1c(C)c(OCC(C)OC)cc(C#N)c21 (stereo not drawn) [Example 121] | < 500 | < 500 |  | 
CCCC1(CC(=O)O)OCCc2c1[nH]c1c(C)c(OCC3CCN(S(C)(=O)=O)CC3)cc(C#N)c21 (stereo not drawn) [Example 122] | < 500 | < 500 |  | 
CCCC1(CC(=O)O)OCCc2c1[nH]c1c(C)c(OCC3CN(S(C)(=O)=O)C3)cc(C#N)c21 (stereo not drawn) [Example 123] | < 500 | < 500 |  | 
CCCC1(CC(=O)O)OCCc2c1[nH]c1c(C)c(OCc3ccon3)cc(C#N)c21 (stereo not drawn) [Example 124] | < 500 | < 500 |  | 
CCC[C@]1(CC(=O)O)OCCc2c1[nH]c1c(C)c(OCc3conc3C)cc(C#N)c21 [Example 125] | < 500 | < 500 |  | 
CCCC1(CC(=O)O)OCCc2c1[nH]c1c(C)c(OCc3cc(C(F)(F)F)n(C)n3)cc(C#N)c21 (stereo not drawn) [Example 126] | < 500 | < 500 |  | 
CCCC1(CC(=O)O)OCCc2c1[nH]c1c(C)c(OCc3cc(C4CC4)on3)cc(C#N)c21 (stereo not drawn) [Example 127] | < 500 |  |  | < 500
CCCC1(CC(=O)O)OCCc2c1[nH]c1c(C)c(OCc3cc(C)[nH]n3)cc(C#N)c21 (stereo not drawn) [Example 128] | < 500 | < 500 |  | 
CCCC1(CC(=O)O)OCCc2c1[nH]c1c(C)c(OCc3cc(C(F)(F)F)n[nH]3)cc(C#N)c21 (stereo not drawn) [Example 129] | < 500 |  |  | < 500
CCCC1(CC(=O)O)OCCc2c1[nH]c1c(C)c(OCc3cc(C4CC4)n(C)n3)cc(C#N)c21 (stereo not drawn) [Example 130] | < 500 | < 500 |  | 
CCCC1(CC(=O)O)OCCc2c1[nH]c1c(C)c(OCc3nsc(N(CC)CC)n3)cc(C#N)c21 (stereo not drawn) [Example 132] | < 500 | < 500 |  | 
CCCC1(CC(=O)O)OCCc2c1[nH]c1c(C)c(OCc3nnc(C)s3)cc(C#N)c21 (stereo not drawn) [Example 133] | < 500 | < 500 |  | 
CCCC1(CC(=O)O)OCCc2c1[nH]c1c(C)c(OCc3nsc(OCC)n3)cc(C#N)c21 (stereo not drawn) [Example 134] | < 500 |  |  | < 500
CCCC1(CC(=O)O)OCCc2c1[nH]c1c(C)c(OCCCc3cc(C)on3)cc(C#N)c21 (stereo not drawn) [Example 135] | < 500 | < 500 |  | 
CCCC1(CC(=O)O)OCCc2c1[nH]c1c(C)c(OCc3nsc(N(C)C)n3)cc(C#N)c21 (stereo not drawn) [Example 136] | < 500 |  |  | < 500
CCCC1(CC(=O)O)OCCc2c1[nH]c1c(C)c(OCc3ccn(CC)n3)cc(C#N)c21 (stereo not drawn) [Example 137] | < 500 | < 500 |  | 
CCCC1(CC(=O)O)OCCc2c1[nH]c1c(C)c(OCc3cc(CC)n(CC)n3)cc(C#N)c21 (stereo not drawn) [Example 138] | < 500 |  |  | < 500
CCCC1(CC(=O)O)OCCc2c1[nH]c1c(C)c(OCc3cc(CC)n(C)n3)cc(C#N)c21 (stereo not drawn) [Example 139] | < 500 | < 500 |  | 
CCCC1(CC(=O)O)OCCc2c1[nH]c1c(C)c(OCc3cc(C)n(CC)n3)cc(C#N)c21 (stereo not drawn) [Example 140] | < 500 | < 500 |  | 
CCCC1(CC(=O)O)OCCc2c1[nH]c1c(C)c(OC[C@@H](C)OC)cc(C#N)c21 (stereo partly drawn) [Example 141] | < 500 | < 500 |  | 
CCCC1(CC(=O)O)OCCc2c1[nH]c1c(C)c(OCCCSC)cc(C#N)c21 (stereo not drawn) [Example 142] | < 500 | < 500 |  | 
CCCC1(CC(=O)O)OCCc2c1[nH]c1c(C)c(OCCCS(C)(=O)=O)cc(C#N)c21 (stereo not drawn) [Example 143] | < 500 |  |  | < 500
(7-Benzyloxymethyl-5-cyano-8-methyl-1-propyl-1,3,4,9-tetrahydro-pyrano[3,4-b]indol-1-yl)-acetic acid [Example 15] | < 500 |  |  | < 500
[5-Cyano-8-methyl-1-propyl-7-(tetrahydro-pyran-4-ylmethoxymethyl)-1,3,4,9-tetrahydro-pyrano[3,4-b]indol-1-yl]-acetic acid [Example 12] | 500 to 5000 |  |  | 500 to 5000
